We go through one compound from PMC12640959, “Elucidation of anti-SARS-CoV-2 and anti-inflammatory bioactives in Qingyan Dropping Pills via integrated in silico screening and bioactivity validation” (Frontiers in Medicine, 2025).

The test system of the experiment is SARS-CoV-2 Omicron BA.5. As to the kind of experiment: cytopathic effects (CPE) inhibition assay in Vero E6 cells. It counts as cell-based. Conditions: result in words. For orientation: Protection from cytopathic effect is a common read-out in antiviral testing.

Take `C[C@@H]1O[C@@H](O[C@H]2[C@H](Oc3cc(O)c4c(=O)cc(-c5ccc(O)cc5)oc4c3)O[C@H](CO)[C@@H](O)[C@@H]2O)[C@H](O)[C@H](O)[C@H]1O` [RHO, rhoifolin]: the “inhibition of the SARS-CoV-2 Omicron BA.5 variant” value is “failed to inhibit”.
